Measured values: patent US20080103193A1, “Methods for making compositions and compositions for treating pain and cachexia” (priority 2006, published 2008)
Entries after “also recorded” stand apart in the source; their conditions may differ.

What was measured:
[1] = cited from earlier work; for psychoactivity relative to THC: compared with Δ9-THC
[2] = cited from earlier work
[3] = Room temperature storage of marijuana biomass, Δ9-THC content; type: physicochemical; conditions: 8-month period, room temperature storage at RTI
Description: Under DEA Schedule I license (No. RC0288058), two 250-gram shipments of high potency, bulk marijuana biomass were requested from the National Institute of Drug Abuse (NIDA). Both shipments were provided by the Research Triangle Institute (RTI) International, Research Triangle Park, N.C. under contract with NIDA. The first batch (RTI Batch No. 8976-1001-26/University of Mississippi Batch No. 1182/1186) was received and logged in at Aphios on Dec. 17, 2002. This batch was measured by the University of Mississippi's Thad Cochran National Center for the Natural Products Research to have a Δ9-THC content of 8.98%. Table 1 lists the concentration of other cannabinoids per the provided Certificate of Analysis (Dec. 2, 2002). Table 1 also lists HPLC measurements of heat-treated biomass made by Aphios' chemists; the methods and data are detailed below. The biomass was stored in a locked safe at room temperature when not in use. All usage was recorded on a log sheet that was also stored in the same safe.
The second shipment, also from the same batch of high potency marijuana from the U. of Mississippi, was received and logged in at Aphios on Aug. 14, 2003. The second shipment was measured by RTI on Jul. 29, 2003 to have a Δ9-THC content of 6.12% by GLC analysis. […]

CCCCCc1cc(O)c2c(c1)OC(C)(C)[C@@H]1CCC(CO)=C[C@@H]21 [11-OH-A-9-THC]
psychoactivity relative to THC [1]: three times more psychoactive

C=C(C)[C@@H]1CCC(C)=C[C@H]1c1c(O)cc(CCCCC)cc1O [CBD, cannabidiol]
psychoactivity ([1]; in vivo): not psychoactive; also recorded: not psychotomimetic in pure form

CCCCCc1cc(O)c2c(c1)OC(C)(C)[C@@H]1CC=C(C)C[C@@H]21 [Δ-8-THC, Δ8-tetrahydrocannabinol]
psychoactivity relative to THC [1]: slightly less active

CCCCCc1cc(O)c2c(c1)OC(C)(C)[C@@H]1CCC(C)=C[C@@H]21 [Dronabinol]
bioavailability (reaches systemic circulation) ([2]; oral Dronabinol): 6-20% | time to peak plasma concentrations after dosing ([2]; oral Dronabinol): 2 to 4 h | bioavailability ([2]; oral intake of synthetic Δ9-THC capsules): 6-20%

CCCCCc1cc(O)c2c(c1)OC(C)(C)[C@@H]1CCC(C)=C[C@@H]21 [Δ9-THC, Δ9-tetrahydrocannabinol]
decrease of Δ9-THC content of the marijuana biomass [3]: about 32%
